Measured values: ChEMBL document CHEMBL1152412, “Isolation, biomimetic synthesis, and cytotoxic activity of bis(pseudopterane) amines” (J Nat Prod, 2009)

Key:
HCT-116 = test: Cytotoxicity against human HCT116 cells after 72 hrs; type: functional, cell-based; conditions: HCT-116, 72 h
HeLa = test: Cytotoxicity against human HeLa cells after 72 hrs; type: functional, cell-based

`C=C(C)[C@H]1C2=CC(C(=O)OC)=C(C[C@H](C(=C)C)[C@@H](O)[C@@H](N[C@H]3C4=C[C@@H](OC4=O)[C@@H](C(=C)C)C4=CC(C(=O)OC)=C(C[C@H](C(=C)C)[C@H]3O)O4)C3=C[C@H]1OC3=O)O2` [BIS(GORGIACEROL)AMINE] showed an IC50 (HCT-116) of 28 µM and an IC50 (HeLa) of over 100 µM.

Work on `C=C(C)[C@H]1C2=CC(C(=O)OC)=C(C[C@H](C(=C)C)[C@H](O)/C=C3\C(=O)O[C@@H]1[C@@H]3N[C@H]1C3=C[C@@H](OC3=O)[C@@H](C(=C)C)C3=CC(C(=O)OC)=C(C[C@H](C(=C)C)[C@H]1O)O3)O2` [BIS(PSEUDOPTERANE)AMINE] yielded an IC50 (HCT-116) of 4 µM and an IC50 (HeLa) of 42 µM.
